Results as given in patent US6797462B1, “Cell-based assay for immunodeficiency virus infectivity and sensitivity” (UAB Research Foundation, priority 1998, dated 2004).

System: HIV YU2
Assay: Protease inhibitor sensitivity: J53tat cells infected with HIV YU2 with drug, supernatant used to infect J53BL cells
Type: cell-based, HIV-1
Conditions: for Number of colony formed in the presence of protease Inhibitor Indinavir: YU2, J53tat then J53BL
Protocol: The J53tat cell line is used to produce virus and thereby enable viral testing of drug candidates that affect various stages of the virus life cycle. Thus, viral drug resistance mutations in early stage targets such as reverse transcriptase (RT), integrase (IN) and env; and late stage targets such as protease and Gag are analyzed by the methods of the present invention. The J53tat cells are infected with HIV YU2 (MOI of either 0.2 or 0.04), and protease inhibitor (indinavir) is added to the cultures at various concentrations. Forty hours after infection the culture supernatant is collected and used to infect the J53BL cell line in the presence of the same drug concentrations.

SMILES: CC(C)(C)NC(=O)[C@@H]1CN(Cc2cccnc2)CCN1C[C@@H](O)C[C@@H](Cc1ccccc1)C(=O)N[C@H]1c2ccccc2C[C@H]1O [indinavir]
- Number of colony formed in the presence of protease Inhibitor Indinavir (0.04 M.O.I, 0.008 MM indinavir): 105
- Number of colony formed in the presence of protease Inhibitor Indinavir (0.04 M.O.I, 0.2 MM indinavir): 2
- Number of colony formed in the presence of protease Inhibitor Indinavir (0.04 M.O.I, 1.0 MM indinavir): 0
- Number of colony formed in the presence of protease Inhibitor Indinavir (0.04 M.O.I): 2
- Number of colony formed in the presence of protease Inhibitor Indinavir (0.2 M.O.I, 0.008 MM indinavir): >1000
- Number of colony formed in the presence of protease Inhibitor Indinavir (0.2 M.O.I, 0.2 MM indinavir): 99
- Number of colony formed in the presence of protease Inhibitor Indinavir (0.2 M.O.I, 1.0 MM indinavir): 0
- Number of colony formed in the presence of protease Inhibitor Indinavir (0.2 M.O.I): 343
- Sensitivity of YU2 to protease inhibitor (increasing concentrations causing greater inhibition): sensitive
